Experiments:
Experiment in all cases: Bliss excess, mean over the matrix (fraction); higher = more synergy
[1] = system: SK-PN-DW (Other Solid Carcinomas)
Summary of the method: (§1)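 Cell lines grown in DMEM/F12 or RPMI with 10% FBS were plated in 1536-well plates and held 24 hours at 37°C, 5% CO2 before 72 hours of exposure to two-drug dose matrices, with DMSO typically at 0.2%. CellTiter-Glo 2.0 luminescence gave viability, which was converted to inhibition. Vehicle wells were set to 0 and blank wells to 1. Combination Emax is the second-highest inhibition in the matrix, and Bliss excess is the observed combination effect minus the expected EA + EB − EA·EB, where EA and EB are the single-agent effects.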

[2] = system: MKN45 (Gastric Carcinoma)
Summary of the method: as §1

[3] = system: REH (B-Lymphoblastic Leukemia)
Summary of the method: as §1

[4] = system: SHP-77 (Small Cell Lung Carcinoma)
Summary of the method: as §1

[5] = system: CAL-62 (Thyroid Gland Carcinoma)
Summary of the method: as §1

[6] = system: TE-8 (Esophageal Squamous Cell Carcinoma)
Summary of the method: as §1

[7] = system: PANC-03-27 (Pancreatic Carcinoma)
Summary of the method: as §1

[8] = system: RKN (Other Solid Carcinomas)
Summary of the method: as §1

[9] = system: PSN1 (Pancreatic Carcinoma)
Summary of the method: as §1

[10] = system: NCI-H2342 (Lung Adenocarcinoma)
Summary of the method: as §1

IST-MES1 (Mesothelioma) = system: IST-MES1 (Mesothelioma)
Summary of the method: as §1

[11] = system: L-1236 (Hodgkin's Lymphoma)
Summary of the method: as §1

[12] = system: VAL (B-Cell Non-Hodgkin's Lymphoma)
Summary of the method: as §1

[13] = system: PC-3_[JPC-3] (Lung Adenocarcinoma)
Summary of the method: as §1

NB12 (Neuroblastoma) = system: NB12 (Neuroblastoma)
Summary of the method: as §1

[14] = system: COLO-680N (Esophageal Squamous Cell Carcinoma)
Summary of the method: as §1

[15] = system: MFE-280 (Endometrial Carcinoma)
Summary of the method: as §1

[16] = system: RCM-1 (Colorectal Carcinoma)
Summary of the method: as §1

SF539 (Glioblastoma) = system: SF539 (Glioblastoma)
Summary of the method: as §1

[17] = system: HSC-39 (Gastric Carcinoma)
Summary of the method: as §1

| SMILES | Bliss excess [1] | Bliss excess [2] | Bliss excess [3] | Bliss excess [4] | Bliss excess [5] | Bliss excess [6] | Bliss excess [7] | Bliss excess [8] | Bliss excess [9] | Bliss excess [10] | Bliss excess (IST-MES1 (Mesothelioma)) | Bliss excess [11] | Bliss excess [12] | Bliss excess [13] | Bliss excess (NB12 (Neuroblastoma)) | Bliss excess [14] | Bliss excess [15] | Bliss excess [16] | Bliss excess (SF539 (Glioblastoma)) | Bliss excess [17] |
| --- | --- | --- | --- | --- | --- | --- | --- | --- | --- | --- | --- | --- | --- | --- | --- | --- | --- | --- | --- | --- |
| Cc1c2c(nn1C)CSCc1cc(n(C)n1)CSc1cc(c3ccccc3c1)OCCCc1c(C(=O)O)n(C)c3c-2c(Cl)ccc13 [AZD5991] + CC(=O)O[C@H]1C(=O)[C@@]2(C)[C@H]([C@H](OC(=O)c3ccccc3)[C@]3(O)C[C@H](OC(=O)[C@H](O)[C@@H](NC(=O)c4ccccc4)c4ccccc4)C(C)=C1C3(C)C)[C@]1(OC(C)=O)CO[C@@H]1C[C@@H]2O [Paclitaxel] (first compound max 1 µM, 7x7, partner max 3 µM) | -0.0012 | -0.0238 | -0.0011 | -0.0043 | -0.0941 | -0.0041 | 0.0181 | -0.0775 | 0.0098 | 0.082 | -0.007 | -0.0631 | -0.0913 | -0.0256 | -0.0424 | 0.0107 | -0.0363 | 0.0336 | 0.0053 | 0.0078 |
| Cc1c2c(nn1C)CSCc1cc(n(C)n1)CSc1cc(c3ccccc3c1)OCCCc1c(C(=O)O)n(C)c3c-2c(Cl)ccc13 [AZD5991] + CS(=O)(=O)CCNCc1ccc(-c2ccc3ncnc(Nc4ccc(OCc5cccc(F)c5)c(Cl)c4)c3c2)o1 [Lapatinib] (first compound max 1 µM, 7x7, partner max 10 µM) | 0.0081 | -0.146 | -0.038 | 0.0045 | -0.0118 | 0.0014 | -0.0485 | -0.0174 | -0.045 | 0.012 | 0.0139 | 0.102 | -0.137 | 0.0072 | -0.0394 | -0.011 | -0.012 | 0.0137 | 0.0226 | -0.0305 |
| Cc1c2c(nn1C)CSCc1cc(n(C)n1)CSc1cc(c3ccccc3c1)OCCCc1c(C(=O)O)n(C)c3c-2c(Cl)ccc13 [AZD5991] + Nc1ccn([C@@H]2O[C@H](CO)[C@@H](O)C2(F)F)c(=O)n1 [Gemcitabine] (first compound max 1 µM, 7x7, partner max 0.3 µM) | 0.008 | -0.0655 | -0.0103 | 0.0181 | -0.024 | -0.0682 | 0.0182 | -0.0708 | -0.0486 | 0.0488 | -0.0208 | -0.0646 | -0.0324 | -0.0333 | 0.0008 | -0.0215 | -0.0363 | 0.0164 | 0.0133 | 0.006 |
| C[C@@H]1COCCN1c1cc(C2([S@](C)(=N)=O)CC2)nc(-c2ccnc3[nH]ccc23)n1 [AZD6738] + C1CC(C1)(C(=O)[O-])C(=O)[O-].N.N.[Pt+2] [Carboplatin] (first compound max 10 µM, 7x7, partner max 10 µM) | -0.0517 | -0.104 | 0.0175 | 0.0138 | -0.0402 | -0.0806 | -0.0554 | -0.0615 | -0.0278 | -0.0422 | -0.0502 | -0.0366 | -0.0465 | -0.0326 | -0.0444 | -0.0073 | -0.0617 | -0.0443 | -0.0835 | -0.0265 |
| C[C@@H]1COCCN1c1cc(C2([S@](C)(=N)=O)CC2)nc(-c2ccnc3[nH]ccc23)n1 [AZD6738] + Nc1ccn([C@@H]2O[C@H](CO)[C@@H](O)C2(F)F)c(=O)n1 [Gemcitabine] (first compound max 10 µM, 7x7, partner max 0.3 µM) | -0.0579 | -0.0824 | 0.0497 | 0.0746 | -0.0064 | 0.0028 | -0.0185 | 0.0982 | 0.0209 | 0.086 | -0.0097 | 0.0294 | -0.108 | 0.0434 | -0.012 | 0.0393 | 0.0731 | 0.0156 | 0.0251 | -0.0049 |
| Cc1cc2ncnn2cc1Nc1ncc2c(n1)n(C1CCOCC1)c(=O)n2C [AZD7648] + COc1cc([C@@H]2c3cc4c(cc3[C@@H](O[C@@H]3O[C@@H]5CO[C@@H](C)O[C@H]5[C@H](O)[C@H]3O)[C@H]3COC(=O)[C@H]23)OCO4)cc(OC)c1O [Etoposide] (first compound max 10 µM, 7x7, partner max 10 µM) | 0.184 | -0.0126 | 0.158 | 0.0139 | 0.127 | 0.0501 | -0.0401 | 0.0299 | 0.0771 | 0.0597 | 0.116 | 0.0004 | -0.0395 | 0.0079 | 0.121 | 0.0384 | -0.0236 | 0.0309 | 0.136 | 0.0582 |
| C[C@@H](Nc1cc(F)cc(F)c1)c1cc(C(=O)N(C)C)cc2c(=O)cc(N3CCOCC3)oc12 [AZD8186] + C1CN(CCC1(C(=O)N[C@@H](CCO)C2=CC=C(C=C2)Cl)N)C3=NC=NC4=C3C=CN4 [AZD5363] (first compound max 10 µM, 7x7, partner max 10 µM) | -0.0137 | -0.038 | -0.023 | -0.0913 | -0.0203 | -0.0543 | -0.0239 | -0.0448 | -0.0065 | 0.0003 | -0.0703 | -0.0371 | -0.0608 | -0.0245 | -0.0305 | -0.0335 | -0.0505 | 0.0062 | 0.0225 | -0.0271 |
| C[C@@H](Nc1cc(F)cc(F)c1)c1cc(C(=O)N(C)C)cc2c(=O)cc(N3CCOCC3)oc12 [AZD8186] + CC(=O)c1c(C)c2cnc(Nc3ccc(N4CCNCC4)cn3)nc2n(C2CCCC2)c1=O [Palbociclib] (first compound max 10 µM, 7x7, partner max 10 µM) | 0.073 | -0.0476 | 0.0638 | -0.0692 | 0.0294 | -0.0495 | 0.0614 | -0.0328 | 0.0298 | 0.0877 | 0.0167 | -0.138 | -0.0615 | -0.023 | 0.0009 | -0.0328 | -0.0424 | -0.0077 | 0.0583 | 0.0271 |
| C[C@@H](Oc1cc(-c2cnn(C3CCNCC3)c2)cnc1N)c1c(Cl)ccc(F)c1Cl [Crizotinib] + CC1=C(C(=CC=C1)Cl)NC(=O)C2=CN=C(S2)NC3=CC(=NC(=N3)C)N4CCN(CC4)CCO [Dasatinib] (first compound max 10 µM, 7x7, partner max 2 µM) | -0.0426 | -0.048 | -0.0153 | -0.0482 | 0.0464 | 0.0208 | 0.0688 | 0.0179 | -0.0469 | -0.0108 | -0.0152 | -0.0626 | -0.0228 | -0.0005 | -0.0563 | -0.0005 | 0.0091 | -0.0081 | 0.0661 | 0.0093 |
| C[C@@H](Oc1cc(-c2cnn(C3CCNCC3)c2)cnc1N)c1c(Cl)ccc(F)c1Cl [Crizotinib] + Cn1cnc2c(F)c(Nc3ccc(Br)cc3Cl)c(C(=O)NOCCO)cc21 [Selumetinib] (first compound max 10 µM, 7x7, partner max 10 µM) | -0.0705 | -0.0192 | -0.0309 | 0.0404 | -0.0219 | -0.0898 | -0.0689 | 0.0181 | 0.0373 | -0.0267 | -0.0311 | -0.0849 | -0.0516 | -0.0549 | -0.0665 | -0.039 | -0.0544 | -0.0089 | -0.0212 | -0.0264 |
| CS(=O)(=O)CCNCc1ccc(-c2ccc3ncnc(Nc4ccc(OCc5cccc(F)c5)c(Cl)c4)c3c2)o1 [Lapatinib] + Cn1cnc2c(F)c(Nc3ccc(Br)cc3Cl)c(C(=O)NOCCO)cc21 [Selumetinib] (first compound max 10 µM, 7x7, partner max 10 µM) | -0.0095 | -0.0778 | -0.0363 | -0.02 | -0.0284 | -0.0505 | 0.044 | -0.0081 | -0.0544 | -0.0418 | -0.0348 | -0.0646 | -0.0549 | -0.0292 | -0.11 | -0.0171 | -0.063 | 0.0661 | 0.0066 | -0.0089 |
| O=C(c1cc(Cc2n[nH]c(=O)c3ccccc23)ccc1F)N1CCN(C(=O)C2CC2)CC1 [Olaparib] + CC1(C)CCC(CN2CCN(c3ccc(C(=O)NS(=O)(=O)c4ccc(NCC5CCOCC5)c([N+](=O)[O-])c4)c(Oc4cnc5[nH]ccc5c4)c3)CC2)=C(c2ccc(Cl)cc2)C1 [Venetoclax] (first compound max 10 µM, 7x7, partner max 1 µM) | 0.0049 | -0.0424 | 0.163 | -0.0028 | -0.0329 | -0.0825 | -0.0675 | -0.0305 | -0.0231 | -0.0201 | -0.0432 | -0.0009 | 0.0181 | -0.0354 | 0.0811 | -0.0584 | -0.053 | -0.0304 | -0.0105 | 0.0033 |
| O=C(c1cc(Cc2n[nH]c(=O)c3ccccc23)ccc1F)N1CCN(C(=O)C2CC2)CC1 [Olaparib] + CN(CC[C@H](CSC1=CC=CC=C1)NC2=C(C=C(C=C2)S(=O)(=O)NC(=O)C3=CC=C(C=C3)N4CCC(CC4)[C@H](C5=CC=CC=C5C6=CC=C(C=C6)Cl)O)S(=O)(=O)C(F)(F)F)CCO [AZD4320] (first compound max 10 µM, 7x7, partner max 1 µM) | 0.0012 | -0.0428 | 0.0835 | 0.0133 | -0.042 | -0.0869 | -0.0341 | -0.0407 | -0.0224 | -0.018 | -0.107 | -0.0506 | 0.0212 | -0.0525 | 0.0362 | -0.0598 | 0.0045 | -0.0431 | -0.017 | -0.0172 |
| O=C(c1cc(Cc2n[nH]c(=O)c3ccccc23)ccc1F)N1CCN(C(=O)C2CC2)CC1 [Olaparib] + COc1nnc2ccc(N3CCC(c4ccc(OCCN5CCN(C)C(=O)[C@H]5C)cc4)CC3)nn12 [AZD5153] (first compound max 10 µM, 7x7, partner max 1 µM) | -0.0518 | -0.0794 | 0.0378 | 0.0113 | -0.0556 | -0.0706 | -0.0776 | 0.0101 | -0.0337 | -0.0253 | -0.117 | -0.0184 | -0.0784 | -0.0518 | -0.0203 | -0.0446 | -0.0147 | -0.0473 | -0.0258 | -0.072 |

From the supplement of paper PMC11061612
